Measured values as given in patent publication US12370192B2, “Azole-fused pyridazin-3(2H)-one derivatives” (TAKEDA PHARMACEUTICAL COMPANY LIMITED, priority 2019, dated 2025).

What was measured:
[1] = biological target: T1, human GPR139 receptor (Homo sapiens, UniProt Q6DWJ6); assay: GPR139 Competition Binding (membrane-based, tritium-labeled ligand); settings: T-REx-CHO membranes with human GPR139; 6.5 nM tritium-labeled ligand; 11-point curve, 30 μM maximum concentration; read-out: GPR139 Binding Affinity (pKi) (converted)
T1 construct: expressed in transfected cells; host or cells: T-REx-CHO (Thermo Fisher Scientific), doxycycline-induced
T1 sequence (Q6DWJ6 1-353): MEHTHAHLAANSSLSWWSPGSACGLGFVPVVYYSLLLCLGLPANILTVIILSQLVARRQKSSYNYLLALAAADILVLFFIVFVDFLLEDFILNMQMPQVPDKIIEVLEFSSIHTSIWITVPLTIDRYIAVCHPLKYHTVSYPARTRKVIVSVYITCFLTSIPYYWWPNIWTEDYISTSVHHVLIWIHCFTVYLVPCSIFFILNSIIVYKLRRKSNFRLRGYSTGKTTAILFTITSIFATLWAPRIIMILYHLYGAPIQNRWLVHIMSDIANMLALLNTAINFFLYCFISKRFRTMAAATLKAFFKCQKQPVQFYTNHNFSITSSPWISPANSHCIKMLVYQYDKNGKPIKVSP
Procedure: OPR139 Competition Binding
This membrane-based assay measures the ability of compounds to competitively bind GPR139 in stably transfected TREx™-CHO membranes. To prepare the membranes, T-REx™-CHO (Thermo Fisher Scientific®) cells are stably expressed with human GPR139 receptor, whose expression is controlled by a tetracycline-inducible element. The cells are cultured in medium containing F-12K nutrient mixture-Kaighn's modification, 10% tetracycline-free FBS, Blasticidin S HCl (10 μg/mL) and Hygromycin B (200 μg/mL). GPR139 receptor expression is induced for 18 hours with 2 μg/mL doxycycline (Sigma D9891) in growth media. After addition of doxycycline, cells are harvested in PBS and pelleted by centrifugation for 5 minutes at 200×G. Liquid is aspirated off and cells are resuspended in ice cold lysis buffer (20 mM HEPES/5 mM EDTA pH 7.4/1× Roche® protease inhibitor). Samples are vortexed until homogenous and then placed on ice and homogenized using a Dounce homogenizer at 50% power (3 cycles, 10 strokes per cycle). Lysate is centrifuged at 4° C. for 10 minutes in a tabletop Sorvall® centrifuge at 2000×G. The supernatant is recovered and centrifuged in a Sorvall® ultracentrifuge at 35,000 rpm for 30 minutes at 4° C. The supernatant is discarded, and the remaining pellet resuspended in lysis buffer (20 mM HEPES/0.1 mM EGTA/Roche® protease inhibitor). Membrane protein concentration is determined using Thermo Fisher® BCA quantification kit and is aliquoted into microtubes. Tubes are snap frozen in liquid nitrogen and stored at −80° C. Prior to use, the membranes are removed from cold storage, thawed to room temperature, vortexed until homogenous and diluted in assay buffer (20 mM HEPES pH 7.3, 5 mM MgCl2, 1 mM CaCl2), 1× Thermo Scientific® Halt™ protease inhibitor (78429)).
The assay is run in 96-well, polypropylene, v-bottom plates (Greiner Bio-One® 651201). Test compound in DMSO is added to the wells of each plate (11-point dose response curve, 30 μM maximum concentration, 3-fold serial dilution). A fixed amount of tritium-labeled ligand, (S)-2-(2,3-dimethyl-7-oxothieno[2,3-d]pyridazin-6(7H)-yl)-N-(1-(4-methoxyphenyl-2-t)propan-2-yl)acetamide (Quotient Bioresearch) in assay buffer (6.5 nM assay concentration) is added to each well of the assay plate, which is then agitated on a plate shaker for 30 seconds. Next, a fixed amount of membranes in assay buffer (2 μg membranes) is added to each well of the assay plate, which is then spun for 30 seconds at 300 rpm in a tabletop Eppendorf centrifuge, and then incubated at room temperature for 20 minutes. Using a Tomtec harvester, the contents of the assay plate are transferred to Filtermat A (PerkinElmer® No. 1450-421) which prior to use is pre-soaked in 0.5% PEI (Sigma P3143) for 3 hours and dried at room temperature overnight. Following transfer, the Filtermat is washed 5 times with cold wash buffer (20 mM HEPES pH 7.3, 100 mM NaCl). The Filtermat is dried using a microwave oven and placed in a sample bag (PerkinElmer® No. 1450-432) with a scintillator sheet (PerkinElmer® No. 1450-411). The scintillator sheet is melted to the Filtermat using a heat block set to 65° C., placed in a MicroBeta® cartridge and read using a MicroBeta® scintillation counter. Binding curves are generated with a four-parameter logistic equation using GraphPad Prism® 6 and the inhibition constant Ki is reported as pKi.

[2] = biological target: T1, human GPR139 receptor; assay: Measurement of GPR139 Activation Via Calcium Signaling (FLIPR, T-REx-CHO cells); format: cell-based; settings: T-REx-CHO cells stably expressing human GPR139, 11-point dose response, 10 μM maximum concentration, read-out: GPR139 Potency (pEC50) (converted)
In short: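 T-REx-CHO cells stably carrying human GPR139 under tetracycline control, induced with 2 μg/mL doxycycline for 17 h at 37 °C, loaded 40 min with Calcium 5 dye plus probenecid in HBSS/HEPES pH 7.4. Agonist added as 11-point series (10 μM top); fluorescence read 1 min; pEC50 from four-parameter fit.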

Row | Structure (SMILES) | Ki [1] [nM] | EC50 [2] [nM]
1 | C[C@H](NC(=O)Cn1ncc2c(C3CC3)nn(C)c2c1=O)c1c(F)cccc1Cl [Example 150, (S)—N-(1-(2-chloro-6-fluorophenyl)ethyl)-2-(3-cyclopropyl-1-methyl-7-oxo-1,7-dihydro-6H-pyrazolo[3,4-d]pyridazin-6-yl)acetamide] | 77.6 | 47.9
2 | Cc1nn(C)c2cnn(CC(=O)N[C@@H](C)c3ccc(C(F)(F)F)cc3)c(=O)c12 [Example 37, (S)-2-(1,3-dimethyl-4-oxo-1,4-dihydro-5H-pyrazolo[3,4-d]pyridazin-5-yl)-N-(1-(4-(trifluoromethyl)phenyl)ethyl)acetamide] | 355 | 26.3
3 | [2H]C([2H])([2H])c1ccc([C@H](C)NC(=O)Cn2ncc3c(cnn3C(C)C)c2=O)cc1 [Example 166, (S)-2-(1-isopropyl-4-oxo-1,4-dihydro-5H-pyrazolo[3,4-d]pyridazin-5-yl)-N-(1-(4-(methyl-d3)phenyl)ethyl)acetamide] | 2340 | 53.7
4 | C[C@H](NC(=O)Cn1ncc2ncn(C)c2c1=O)c1ccc(C(F)(F)F)cc1 [Example 139, (S)-2-(3-methyl-4-oxo-3,4-dihydro-5H-imidazo[4,5-d]pyridazin-5-yl)-N-(1-(4-(trifluoromethyl)phenyl)ethyl)acetamide] | 3800 | 257
5 | Cc1nn(C2CC2)c2cnn(CC(=O)N[C@@H](C)c3c(F)cc(F)cc3F)c(=O)c12 [Example 133, (S)-2-(1-cyclopropyl-3-methyl-4-oxo-1,4-dihydro-5H-pyrazolo[3,4-d]pyridazin-5-yl)-N-(1-(2,4,6-trifluorophenyl)ethyl)acetamide] | 316 | 295
6 | Cc1nn(CC(=O)N[C@@H](C)c2ccc(C(F)(F)F)cn2)c(=O)c2ncn(C)c12 [Example 137, (S)-2-(1,7-dimethyl-4-oxo-1,4-dihydro-5H-imidazo[4,5-d]pyridazin-5-yl)-N-(1-(5-(trifluoromethyl)pyridin-2-yl)ethyl)acetamide] | 30200 | 2630
7 | Cc1ccc([C@H](C)NC(=O)Cn2ncc3c(c(C)cn3C3CC3)c2=O)cc1 [Example 147, (S)-2-(1-cyclopropyl-3-methyl-4-oxo-1,4-dihydro-5H-pyrrolo[2,3-d]pyridazin-5-yl)-N-(1-(p-tolyl)ethyl)acetamide] | 7.59 | 33.1
8 | Cc1ccc([C@H](C)NC(=O)Cn2nc(C(C)C)c3cnn(C(C)(C)C)c3c2=O)cc1 [Example 11, (S)-2-(1-(tert-butyl)-4-isopropyl-7-oxo-1,7-dihydro-6H-pyrazolo[3,4-d]pyridazin-6-yl)-N-(1-(p-tolyl)ethyl)acetamide] | 107 | 2750
9 | Cc1ccc([C@H](C)NC(=O)Cn2ncc3c(C)nn(C4CC4)c3c2=O)cc1 [Example 28, (S)-2-(1-cyclopropyl-3-methyl-7-oxo-1,7-dihydro-6H-pyrazolo[3,4-d]pyridazin-6-yl)-N-(1-(p-tolyl)ethyl)acetamide] | 32.4 | 52.5
10 | Cc1ccc([C@H](C)NC(=O)Cn2ncc3c(c(C(C)C)nn3C)c2=O)cc1 [Example 51, (S)-2-(3-isopropyl-1-methyl-4-oxo-1,4-dihydro-5H-pyrazolo[3,4-d]pyridazin-5-yl)-N-(1-(p-tolyl)ethyl)acetamide] | 135 | 32.4
11 | Cc1nn(C2CC2)c2c(=O)n(CC(=O)N3CCCC3c3ccc(Cl)cc3)ncc12 (stereo not drawn) [Example 85, 6-(2-(2-(4-chlorophenyl)pyrrolidin-1-yl)-2-oxoethyl)-1-cyclopropyl-3-methyl-1,6-dihydro-7H-pyrazolo[3,4-d]pyridazin-7-one] | 55 | 741
12 | C[C@H](NC(=O)Cn1ncc2c(cnn2C)c1=O)c1ccc(C(F)(F)F)cc1 [Example 34, (S)-2-(1-methyl-4-oxo-1,4-dihydro-5H-pyrazolo[3,4-d]pyridazin-5-yl)-N-(1-(4-(trifluoromethyl)phenyl)ethyl)acetamide] | 6030 | 70.8
13 | COc1ccc([C@H](C)NC(=O)Cn2ncc3c(c(C)nn3C3CC3)c2=O)c(F)c1 [Example 127, (S)-2-(1-cyclopropyl-3-methyl-4-oxo-1,4-dihydro-5H-pyrazolo[3,4-d]pyridazin-5-yl)-N-(1-(2-fluoro-4-methoxyphenyl)ethyl)acetamide] | 933 | 25.7
14 | C[C@H](NC(=O)Cn1ncc2ccn(C)c2c1=O)c1ccc(Cl)cc1 [Example 161, (S)—N-(1-(4-chlorophenyl)ethyl)-2-(1-methyl-7-oxo-1,7-dihydro-6H-pyrrolo[2,3-d]pyridazin-6-yl)acetamide] | 105 | 8.51
15 | C[C@H](NC(=O)Cn1ncc2c(ncn2C)c1=O)c1ccc(C(F)(F)F)cc1 [Example 141, (S)-2-(1-methyl-4-oxo-1,4-dihydro-5H-imidazo[4,5-d]pyridazin-5-yl)-N-(1-(4-(trifluoromethyl)phenyl)ethyl)acetamide] | 5890 | 457
16 | Cc1ccc([C@H](C)NC(=O)Cn2nc(C)c3cnn(-c4ccccc4)c3c2=O)cc1 [Example 1] | 55 | 51.3
17 | CC(C)c1nn(CC(=O)N[C@@H](C)c2ccc(OC(F)(F)F)cc2)c(=O)c2c1cnn2-c1ccccc1 [Example 7, (S)-2-(4-isopropyl-7-oxo-1-phenyl-1,7-dihydro-6H-pyrazolo[3,4-d]pyridazin-6-yl)-N-(1-(4-(trifluoromethoxy)phenyl)ethyl)acetamide] | 162 | ≥ 10000
18 | Cc1nn(CC(=O)N[C@@H](C)c2ccc(OC(F)(F)F)cc2)c(=O)c2cnn(C)c12 [Example 73, (S)-2-(1,7-dimethyl-4-oxo-1,4-dihydro-5H-pyrazolo[3,4-d]pyridazin-5-yl)-N-(1-(4-(trifluoromethoxy)phenyl)ethyl)acetamide] | 3470 | 63.1
19 | Cc1nn(C2CC2)c2cnn(CC(=O)N[C@@H](C)c3cccc(F)c3)c(=O)c12 [Example 25, (S)-2-(1-cyclopropyl-3-methyl-4-oxo-1,4-dihydro-5H-pyrazolo[3,4-d]pyridazin-5-yl)-N-(1-(3-fluorophenyl)ethyl)acetamide] | 617 | 23.4
20 | C[C@H](NC(=O)Cn1ncc2c(C3CC3)nn(C)c2c1=O)c1ccc(C(F)(F)F)cc1 [Example 142, (S)-2-(3-cyclopropyl-1-methyl-7-oxo-1,7-dihydro-6H-pyrazolo[3,4-d]pyridazin-6-yl)-N-(1-(4-(trifluoromethyl)phenyl)ethyl)acetamide] | 229 | 95.5
21 | Cc1ccc([C@H](C)NC(=O)Cn2nc(C3CC3)c3cnn(-c4ccccc4)c3c2=O)c(F)c1 [Example 42, (S)-2-(4-cyclopropyl-7-oxo-1-phenyl-1,7-dihydro-6H-pyrazolo[3,4-d]pyridazin-6-yl)-N-(1-(2-fluoro-4-methylphenyl)ethyl)acetamide] | 19.5 | ≥ 10000
